How the values were obtained:
thrombin receptors = assay: Peptide competition for [125I]-alpha-thrombin binding to ME cells; settings: for fold higher concentration required for 30% inhibition than p508-530: [125I]-alpha-thrombin binding; for Conc. at Maximal % Inhibition / Concentration Required for 30% Inhibition / Maximal % Inhibition: [125I]-alpha-thrombin binding to ME cells; for Maximal % Inhibition: at the conc. printed below the value
Text: Thrombin peptide derivatives are believed to activate cells by binding to a high-affinity cell-surface thrombin receptor known as the non-proteolytically-activated thrombin receptor (hereinafter “NPAR”) (R. Horvat, et. al., J. Cell Sci. 108, 1155-1164, 1995). Compounds which stimulate NPAR are said to be thrombin receptor agonists. NPAR activation can be assayed based on the ability of molecules to stimulate cell proliferation when added to fibroblasts in the presence of submitogenic concentrations of thrombin or molecules that activate protein kinase C or compete with ^125I-thrombin for high affinity binding to thrombin receptors, as disclosed in U.S. Pat. Nos. 5,352,664 and 5,500,412 and in Glenn et al., J. Peptide Research 1:65 (1988).
To further identify regions of thrombin involved in high-affinity binding and generation of mitogenic signals, two peptides representing specific domains within p508-530 were tested. The first peptide represented residues 519 to 530 of the B-chain region of human prothrombin, a region of thrombin that is highly conserved among serine proteases. The second peptide represented residues 517 to 520 of prothrombin, a region of thrombin homologous to the fibronectin cell binding domain.
Both of these peptides were able to compete for 30% to 50% of the binding of [^125I]-alpha-thrombin to ME cells, but both required higher concentrations than was required with the initial peptide p508-530 (Table 1). For example, 30% inhibition of [^125I]-alpha-thrombin binding required 33- to 50-fold higher concentrations of p519-530 and p517-520 than p508-530, respectively. Thus, both of these peptides appear to interact with thrombin receptors, but at a lower affinity than p508-530. Because p517-520 is homologous to the fibronectin cell binding domain, a peptide having the sequence Arg-Gly-Ala-Ser (SEQ ID NO:13; the sequence of the fibronectin specific peptide) was also tested for its ability to compete for [^125I]-alpha-thrombin binding. […] Thus, the receptor for alpha-thrombin is not the same membrane protein that specifically interacts with fibronectin and causes the apparent growth promoting action of fibronectin.

NIL cells = settings: increasing concentrations, quiescent NIL cells, 2 and 4 nM alpha-thrombin; FIG. 6 of U.S. Pat. No. 5,500,412; cited from earlier work

Row | Substance | competition with [125I]-alpha-thrombin for binding (thrombin receptors; at a concentration of 1.3 μM) | effect on DNA synthesis (NIL cells) | fold higher concentration required for 30% inhibition than p508-530 (thrombin receptors) [fold] | Conc. at Maximal % Inhibition (thrombin receptors) | Concentration Required for 30% Inhibition (thrombin receptors) [nM] | Maximal % Inhibition (thrombin receptors) [%]
1 | Arg-Gly-Ala-Ser (RGAS; Fibronectin fragment) | did not compete |  |  |  |  | 
2 | DACEGDSGGPFV (Thrombin peptide derivative) [p519-530] |  | enhanced DNA synthesis over a range of concentrations | 33 | (800 nM) | 200 | 51
3 | RGDA (Thrombin peptide fragment) [p517-520] |  | inhibited DNA synthesis | 50 | (2.7 μM) | 300 | 50

Reference: patent US7919457B2, “Thrombin peptide derivative dimers” (Orthologic Corp., priority 2002, dated 2011)
